Measurements: patent US9168259B2 (GRÜNENTHAL GMBH, priority 2010, dated 2015)

Biological target: T1, KCNQ2/3 channels (Homo sapiens, UniProt O43525+O43526)
T1 construct: expressed in transfected cells
Assay: Fluorescence assay using a voltage sensitive dye (fluorimetry)
Assay type: cell-based
Details: CHO-K1 cells expressing KCNQ2/3; for Emax: CHO-K1, plateau effect relative to saturated retigabine (50 μM) = 100%, negative values = antagonistic, read-out: Fluorimetry % efficacy (retigabine = 100%); for EC50: IC50 where % efficacy is negative, read-out: Fluorimetry EC50/IC50

T1 sequence (O43526 whole entry): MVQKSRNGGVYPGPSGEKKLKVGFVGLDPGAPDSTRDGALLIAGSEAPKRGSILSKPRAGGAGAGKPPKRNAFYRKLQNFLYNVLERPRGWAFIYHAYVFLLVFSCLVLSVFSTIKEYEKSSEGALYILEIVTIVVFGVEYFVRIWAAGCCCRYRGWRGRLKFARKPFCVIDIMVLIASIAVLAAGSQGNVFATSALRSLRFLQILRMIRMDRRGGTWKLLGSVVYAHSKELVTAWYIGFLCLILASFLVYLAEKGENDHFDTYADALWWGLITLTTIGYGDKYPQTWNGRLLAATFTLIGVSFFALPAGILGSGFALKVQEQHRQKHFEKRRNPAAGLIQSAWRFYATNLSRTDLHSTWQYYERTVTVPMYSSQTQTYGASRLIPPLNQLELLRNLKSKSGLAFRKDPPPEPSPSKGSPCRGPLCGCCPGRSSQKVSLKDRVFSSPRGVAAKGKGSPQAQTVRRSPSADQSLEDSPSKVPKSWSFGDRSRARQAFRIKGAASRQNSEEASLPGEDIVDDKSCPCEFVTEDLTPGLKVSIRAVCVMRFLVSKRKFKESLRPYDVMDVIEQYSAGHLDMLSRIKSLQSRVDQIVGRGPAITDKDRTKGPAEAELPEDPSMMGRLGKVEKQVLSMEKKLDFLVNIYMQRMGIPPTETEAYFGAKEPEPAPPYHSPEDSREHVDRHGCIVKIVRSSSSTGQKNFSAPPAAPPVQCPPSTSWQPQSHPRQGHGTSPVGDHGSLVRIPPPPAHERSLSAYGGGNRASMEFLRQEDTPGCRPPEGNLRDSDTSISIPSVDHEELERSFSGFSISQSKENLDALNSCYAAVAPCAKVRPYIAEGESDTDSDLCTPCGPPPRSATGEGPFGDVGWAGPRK
T1 sequence (O43525 whole entry): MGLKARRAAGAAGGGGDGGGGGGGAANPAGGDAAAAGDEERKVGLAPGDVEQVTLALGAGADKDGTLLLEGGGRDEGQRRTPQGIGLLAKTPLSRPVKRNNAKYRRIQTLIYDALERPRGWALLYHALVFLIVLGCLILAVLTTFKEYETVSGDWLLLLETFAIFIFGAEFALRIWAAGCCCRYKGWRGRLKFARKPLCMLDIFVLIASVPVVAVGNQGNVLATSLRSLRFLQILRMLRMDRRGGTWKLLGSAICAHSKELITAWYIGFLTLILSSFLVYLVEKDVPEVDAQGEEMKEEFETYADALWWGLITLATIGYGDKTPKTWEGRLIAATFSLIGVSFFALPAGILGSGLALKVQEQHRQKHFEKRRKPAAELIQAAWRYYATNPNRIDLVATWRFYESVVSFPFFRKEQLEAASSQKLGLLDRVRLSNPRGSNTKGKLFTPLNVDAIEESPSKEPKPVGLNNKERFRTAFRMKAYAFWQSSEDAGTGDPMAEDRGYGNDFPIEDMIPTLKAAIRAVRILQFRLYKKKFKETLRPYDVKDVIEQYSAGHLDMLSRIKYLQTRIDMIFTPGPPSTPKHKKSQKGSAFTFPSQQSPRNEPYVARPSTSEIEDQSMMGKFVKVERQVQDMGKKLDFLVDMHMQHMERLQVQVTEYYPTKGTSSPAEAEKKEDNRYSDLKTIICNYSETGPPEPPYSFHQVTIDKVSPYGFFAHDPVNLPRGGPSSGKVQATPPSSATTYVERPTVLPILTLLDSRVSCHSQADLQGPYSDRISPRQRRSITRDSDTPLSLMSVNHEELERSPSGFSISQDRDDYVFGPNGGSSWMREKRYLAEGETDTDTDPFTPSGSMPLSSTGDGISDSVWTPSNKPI

SMILES | Emax | EC50
CCSc1nc(N2CCOC(C(F)(F)F)C2)cc(C)c1C(=O)NCc1cccc(F)c1 (stereo not shown) [Example 260, 2-Ethylsulfanyl-N-[(3-fluorophenyl)-methyl]-4-methyl-6-[2-(trifluoromethyl)-morpholin-4-yl]-pyridine-3-carboxylic acid amide] | 127% | 149 nM
CCSc1nc(N2CCOC[C@@H]2COC)cc(C)c1C(=O)NCc1ccc(Cl)cc1 [Example 257, N-[(4-Chlorophenyl)-methyl]-2-ethylsulfanyl-6-[(3S)-3-(methoxymethyl)-morpholin-4-yl]-4-methyl-pyridine-3-carboxylic acid amide] | 125% | 23 nM
CCC(C)c1nc(N2CCOC[C@H]2C)cc(C)c1C(=O)NCc1ccc(F)cc1 (stereo partly drawn) [Example 194, N-[(4-Fluorophenyl)-methyl]-4-methyl-6-[(3R)-3-methyl-morpholin-4-yl]-2-(1-methyl-propyl)-pyridine-3-carboxylic acid amide] | 189% | 31 nM
CCSc1nc(N2CCOCC2)cc(C)c1C(=O)NCc1cccc(C#N)c1 [Example 102, N-[(3-Cyano-phenyl)-methyl]-2-ethylsulfanyl-4-methyl-6-morpholin-4-yl-pyridine-3-carboxylic acid amide] | 138% | 1220 nM
CCSc1nc(N2CCO[C@H](COC)C2)cc(C)c1C(=O)NCc1cccc(F)c1 [Example 224, 2-Ethylsulfanyl-N-[(3-fluorophenyl)-methyl]-6-[(2S)-2-(methoxymethyl)-morpholin-4-yl]-4-methyl-pyridine-3-carboxylic acid amide] | 136% | 693 nM
CCSc1nc(N(C)C2CCCC(OC)C2)cc(C)c1C(=O)NCc1cccc(F)c1 (stereo not shown) [Example 307, 2-Ethylsulfanyl-N-[(3-fluorophenyl)-methyl]-6-[(3-methoxy-cyclohexyl)-methyl-amino]-4-methyl-pyridine-3-carboxylic acid amide] | 104% | 178 nM
COc1nc(N2CCOCC2)cc(C)c1C(=O)NCc1ccc(Cl)cc1 [Example 165, N-[(4-Chlorophenyl)-methyl]-2-methoxy-4-methyl-6-morpholin-4-yl-pyridine-3-carboxylic acid amide] | 135% | 230 nM
CCSc1nc(N2CCc3ccccc3C2)cc(C)c1C(=O)NCc1cccc(F)c1 [Example 26, 2-Ethylsulfanyl-N-[(3-fluorophenyl)-methyl]-4-methyl-6-(1,2,3,4-tetrahydro-isoquinolin-2-yl)-pyridine-3-carboxylic acid amide] | 155% | 132 nM
CCSc1nc(N(C)CCCOC)cc(C)c1C(=O)NCCCC(C)(C)C [Example 212, N-(4,4-Dimethyl-pentyl)-2-ethylsulfanyl-6-(3-methoxy-propyl-methyl-amino)-4-methyl-pyridine-3-carboxylic acid amide] | 200% | 152 nM
CSc1nc(N2CCOC[C@H]2C)cc(C)c1C(=O)NCc1ccc(F)cc1 [Example 176, N-[(4-Fluorophenyl)-methyl]-4-methyl-6-[(3R)-3-methyl-morpholin-4-yl]-2-methylsulfanyl-pyridine-3-carboxylic acid amide] | 215% | 136 nM
CCSc1nc(N2CCOCC2)cc(C)c1C(=O)NCc1ccc(F)cc1OC [Example 17, 2-Ethylsulfanyl-N-[(4-fluoro-2-methoxy-phenyl)methyl]-4-methyl-6-morpholin-4-yl-pyridine-3-carboxylic acid amide] | 21% | 
Cc1cc(N2CCOCC2)nc(C(C)C)c1C(=O)NCc1ccc(F)c(F)c1 [Example 310, N-[(3,4-Difluoro-phenyl)-methyl]-2-isopropyl-4-methyl-6-morpholin-4-yl-pyridine-3-carboxylic acid amide] | 174% | 43 nM
COCc1ccc(CNC(=O)c2c(C)cc(N3CCOCC3)nc2C2CC2)cc1F [Example 355, 2-Cyclopropyl-N-[[3-fluoro-4-(methoxymethyl)-phenyl]methyl]-4-methyl-6-morpholin-4-yl-pyridine-3-carboxylic acid amide] | 167% | 721 nM
CCSc1nc(N2CCOCC2)cc(C)c1C(=O)NCc1ccc(F)cc1F [Example 107, N-[(2,4-Difluoro-phenyl)-methyl]-2-ethylsulfanyl-4-methyl-6-morpholin-4-yl-pyridine-3-carboxylic acid amide] | 90% | 88 nM
CCC(C)c1nc(N2CCOCC2)cc(C)c1C(=O)NCc1cccc(F)c1 (stereo not shown) [Example 216, N-[(3-Fluorophenyl)-methyl]-4-methyl-2-(1-methyl-propyl)-6-morpholin-4-yl-pyridine-3-carboxylic acid amide] | 181% | 69 nM

Now from value to molecule:

Emax | EC50 | SMILES
235% | 392 nM | CCOc1nc(N2CCOCC2)cc(C)c1C(=O)NCCCC(F)(F)F [Example 133, 2-Ethoxy-4-methyl-6-morpholin-4-yl-N-(4,4,4-trifluoro-butyl)-pyridine-3-carboxylic acid amide]
40% |  | CCSc1nc(N2CCOCC2)cc(C)c1C(=O)NCCOC [Example 77, 2-Ethylsulfanyl-N-(2-methoxy-ethyl)-4-methyl-6-morpholin-4-yl-pyridine-3-carboxylic acid amide]
216% | 284 nM | COCCOc1nc(N2CCOCC2)cc(C)c1C(=O)NCCCC(C)(C)C [Example 349, N-(4,4-Dimethyl-pentyl)-2-(2-methoxy-ethoxy)-4-methyl-6-morpholin-4-yl-pyridine-3-carboxylic acid amide]
225% | 284 nM | CCN(C)c1nc(N2CCOCC2)cc(C)c1C(=O)NCCCC(C)(C)C [Example 189, N-(4,4-Dimethyl-pentyl)-2-(ethyl-methyl-amino)-4-methyl-6-morpholin-4-yl-pyridine-3-carboxylic acid amide]
237% | 117 nM | COCCSc1nc(N2CCOCC2)cc(C)c1C(=O)NCCCC(C)(C)C [Example 337, N-(4,4-Dimethyl-pentyl)-2-(2-methoxy-ethylsulfanyl)-4-methyl-6-morpholin-4-yl-pyridine-3-carboxylic acid amide]
227% | 1120 nM | COc1nc(N2CCOCC2)cc(C)c1C(=O)NCCCC(F)(F)F [Example 140, 2-Methoxy-4-methyl-6-morpholin-4-yl-N-(4,4,4-trifluoro-butyl)-pyridine-3-carboxylic acid amide]
130% | 102 nM | CCCc1nc(N2CCOCC2)cc(C)c1C(=O)NCc1ccc(C(F)(F)F)cc1 [Example 323, 4-Methyl-6-morpholin-4-yl-2-propyl-N-[[4-(trifluoromethyl)-phenyl]-methyl]pyridine-3-carboxylic acid amide]
230% | 44 nM | Cc1cc(N2CCOCC2)nc(C2CC2)c1C(=O)NCCCC(C)(C)C [Example 328, 2-Cyclopropyl-N-(4,4-dimethyl-pentyl)-4-methyl-6-morpholin-4-yl-pyridine-3-carboxylic acid amide]
226% | 79 nM | CCSc1nc(N2CCOCC2)cc(C)c1C(=O)NCCCC1(C)CC1 [Example 350, 2-Ethylsulfanyl-4-methyl-N-[3-(1-methyl-cyclopropyl)-propyl]-6-morpholin-4-yl-pyridine-3-carboxylic acid amide]
